Results taken from patent US20170290774A1, “NEUROKININ-1 RECEPTOR ANTAGONIST COMPOSITION FOR TREATMENT OF DISEASES AND CONDITIONS OF THE RESPIRATORY TRACT” (PLUS VITECH, S.L., priority 2014, published 2017).
Like-named read-outs stand apart in the source and are kept apart here.

Columns and labels:
VEGF = experiment: Immunohistochemistry of VEGF in respiratory tract tissue of sodium hypochlorite aerosol-treated rabbits; assay type: in vivo, New Zealand albino rabbits
Description: It is known that the factors TGF-α, TGF-β 1, TGF-β 2, TGF-β 3, SPARC, MMP-3; MMP-7, MMP-9, MMP-11, MMP-13 and MMP-14, TGF-β, NF-kB, EGF, MMP-9, VEGF and TNF-α which are produced by lung cells (pneumocytes, fibroblasts and vascular endothelial cells) and inflammatory cells (macrophages, lymphocytes and polymorphonuclear leukocytes) are involved in the pathophysiology and development of said respiratory tract diseases. […] Herein, 27 New Zealand albino rabbits (New Zealand White Rabbit) with an initial average weight about 3 kg were used in this example. All subjects were administered an aerosol of a solution consisting of a mixture of water and sodium hypochlorite (35 g sodium hypochlorite per liter of water) at a rate of 5 mL of said solution by inhalation three times a day for 7 days (days 1 to 7 of experimentation). Subsequently, from days 3 to 7, a group of 3 rabbits (Group 1) was administered an oral dose of 10 mg/kg body weight per day, another group of 3 rabbits (Group 2) was administered an oral dose of 40 mg/kg body weight per day, a third group (Group 3) was administered an oral dose of 80 mg/kg body weight per day and a fourth group (Group 4) was administered an oral dose of 100 mg/kg body weight per day. […] This mixture was administered as an aerosol by inhalation, also from days 3 to 7, to a group of 3 rabbits (group 5) at a dose of 0.05 mg/kg body weight per day, to another group of three rabbits (Group 6) at a dose of 0.1 mg/kg body weight per day, to another group of three rabbits (Group 7) at a dose of 0.2 mg/kg body weight per day and to another group of three rabbits (Group 8) at a dose of 0.4 mg/kg body weight per day. A placebo consisting only of olive oil was administered from days 3 to 7 to a control group of 3 rabbits (placebo group). In parallel, 3 rabbits were kept under identical conditions but were not administered any treatment nor the aforementioned sodium hypochlorite solution (control group). […] On day 7 of the experiment all animals were euthanized and necropsied. […] Samples were taken at the peripheral level of the lung parenchyma, just below the pleural surface. Tissue samples were also taken from the nasal cavity, pharynx, larynx and bronchi. Immunohistochemistry studies were performed for all samples to evaluate the levels of the markers TGF-α, TGF-β 1, TGF-β 2, TGF-β 3 SPARC, MMP-3; MMP-7, MMP-9, MMP-11, MMP-14, TGF-β, TNF-α and VEGF. In said immunohistochemistry studies, a sample of each sample was dehydrated by treatment with increasing concentrations of ethanol and finally xylene. Subsequently said dried samples were embedded in paraffin, thus creating a block. Said paraffin blocks were cut on a microtome to a thickness of 5 μm, and the resulting sections (slices) were placed on slides suitable for conducting immunohistochemistry techniques. Subsequently, the sections were deparaffinised by immersion in xylene and then rehydrated through immersion in a series of solutions containing decreasing concentrations of ethanol and, finally, water. […] The samples were then allowed to cool to room temperature over 10 minutes. Endogenous peroxidase activity was blocked by treatment with 3% hydrogen peroxide over 30 min at room temperature. […] In order to verify the expression of NK1 receptors, the cell samples were incubated in the presence of anti-NK1 antibodies ([…], Sigma-Aldrich) diluted 1:1000 at 4° C. overnight. After this time they were washed in 0.05M Tris buffer at room temperature. Subsequently, Envision System-HRP (Dako) reagents were added for 30 min at room temperature. Once this time had expired, the samples were again washed with 0.05 M Tris buffer, and immunoreactivity was visualized by light microscopy with a chromogenic solution with 3,3'-diaminobenzidine (DAB+; Dako, USA). In order to differentiate the cell nuclei, these were lightly stained with haematoxylin. Samples that were not incubated with the primary antibody, but wherein this was replaced by a non-immune serum were used as negative controls. […]

[1] = cited from earlier work
[2] = single oral dose of 125 mg of Emend
[3] = terminal nephropathy with hemodialysis, single dose of 240 mg of Emend

C[C@@H](OC1OCCN(Cc2nc(=O)[nH][nH]2)C1c1ccc(F)cc1)c1cc(C(F)(F)F)cc(C(F)(F)F)c1 (stereo in doubt) [Aprepitant, 5-([(2R,3S)-2-((R)-1-[3,5-bis(trifluoromethyl)phenyl]ethoxy)-3-(4-fluorophenyl)morpholino]methyl)-1H-1,2,4-triazol-3(2H)-one]
Percent increase in VEGF with respect to the control group (VEGF; bronchial tissue, Group 1, oral 10 mg/kg per day): 457.34% | Percent increase in VEGF with respect to the control group (VEGF; bronchial tissue, Group 2, oral 40 mg/kg per day): 356.45% | Percent increase in VEGF with respect to the control group (VEGF; bronchial tissue, Group 3, oral 80 mg/kg per day): 256.34% | Percent increase in VEGF with respect to the control group (VEGF; bronchial tissue, Group 4, oral 100 mg/kg per day): 203.56% | % Med G5/C: percent increase in marker VEGF with respect to the control group (VEGF; bronchial tissue, Group 5): 324.53% | % Med G6/C: percent increase in marker VEGF with respect to the control group (VEGF; bronchial tissue, Group 6): 235.71% | % Med G7/C: percent increase in marker VEGF with respect to the control group (VEGF; bronchial tissue, Group 7): 153.57% | % Med G8/C: percent increase in marker VEGF with respect to the control group (VEGF; bronchial tissue, Group 8): 112.71% | Percent increase in VEGF with respect to the control group (VEGF; laryngeal tissue, Group 1, oral 10 mg/kg per day): 1,134.34% | Percent increase in VEGF with respect to the control group (VEGF; laryngeal tissue, Group 2, oral 40 mg/kg per day): 980.54% | Percent increase in VEGF with respect to the control group (VEGF; laryngeal tissue, Group 3, oral 80 mg/kg per day): 875.80% | Percent increase in VEGF with respect to the control group (VEGF; laryngeal tissue, Group 4, oral 100 mg/kg per day): 667.82% | Percent increase in VEGF with respect to the control group (VEGF; laryngeal tissue, Group 5, inhalation 0.05 mg/kg per day): 950.34% | Percent increase in VEGF with respect to the control group (VEGF; laryngeal tissue, Group 6, inhalation 0.1 mg/kg per day): 670.32% | Percent increase in VEGF with respect to the control group (VEGF; laryngeal tissue, Group 7, inhalation 0.2 mg/kg per day): 570.12% | Percent increase in VEGF with respect to the control group (VEGF; laryngeal tissue, Group 8, inhalation 0.4 mg/kg per day): 250.21% | Percent increase in VEGF with respect to the control group (VEGF; lung tissue, Group 1, oral 10 mg/kg per day): 655.77% | Percent increase in VEGF with respect to the control group (VEGF; lung tissue, Group 2, oral 40 mg/kg per day): 512.28% | Percent increase in VEGF with respect to the control group (VEGF; lung tissue, Group 3, oral 80 mg/kg per day): 458.30% | Percent increase in VEGF with respect to the control group (VEGF; lung tissue, Group 4, oral 100 mg/kg per day): 342.93% | Percent increase in VEGF with respect to the control group (VEGF; lung tissue, Group 5, inhalation 0.05 mg/kg per day): 575.62% | Percent increase in VEGF with respect to the control group (VEGF; lung tissue, Group 6, inhalation 0.1 mg/kg per day): 391.91% | Percent increase in VEGF with respect to the control group (VEGF; lung tissue, Group 7, inhalation 0.2 mg/kg per day): 200.18% | Percent increase in VEGF with respect to the control group (VEGF; lung tissue, Group 8, inhalation 0.4 mg/kg per day): 145.64% | Percent increase in VEGF with respect to the control group (VEGF; nasal cavity tissue, Group 1, oral 10 mg/kg per day): 1,293.11% | Percent increase in VEGF with respect to the control group (VEGF; nasal cavity tissue, Group 2, oral 40 mg/kg per day): 969.58% | Percent increase in VEGF with respect to the control group (VEGF; nasal cavity tissue, Group 3, oral 80 mg/kg per day): 716.62% | Percent increase in VEGF with respect to the control group (VEGF; nasal cavity tissue, Group 4, oral 100 mg/kg per day): 576.80% | Percent increase in VEGF with respect to the control group (VEGF; nasal cavity tissue, Group 5, inhalation 0.05 mg/kg per day): 1,727.98% | Percent increase in VEGF with respect to the control group (VEGF; nasal cavity tissue, Group 6, inhalation 0.1 mg/kg per day): 1,010.56% | Percent increase in VEGF with respect to the control group (VEGF; nasal cavity tissue, Group 7, inhalation 0.2 mg/kg per day): 323.15% | Percent increase in VEGF with respect to the control group (VEGF; nasal cavity tissue, Group 8, inhalation 0.4 mg/kg per day): 145.68% | Percent increase in VEGF with respect to the control group (VEGF; pharyngeal tissue, Group 1, oral 10 mg/kg per day): 1,789.12% | Percent increase in VEGF with respect to the control group (VEGF; pharyngeal tissue, Group 2, oral 40 mg/kg per day): 1,256.67% | Percent increase in VEGF with respect to the control group (VEGF; pharyngeal tissue, Group 3, oral 80 mg/kg per day): 998.56% | Percent increase in VEGF with respect to the control group (VEGF; pharyngeal tissue, Group 4, oral 100 mg/kg per day): 567.45% | Percent increase in VEGF with respect to the control group (VEGF; pharyngeal tissue, Group 5, inhalation 0.05 mg/kg per day): 1,858.37% | Percent increase in VEGF with respect to the control group (VEGF; pharyngeal tissue, Group 6, inhalation 0.1 mg/kg per day): 1,198.56% | Percent increase in VEGF with respect to the control group (VEGF; pharyngeal tissue, Group 7, inhalation 0.2 mg/kg per day): 654.32% | Percent increase in VEGF with respect to the control group (VEGF; pharyngeal tissue, Group 8, inhalation 0.4 mg/kg per day): 121.34% | effect of mild hepatic insufficiency on pharmacokinetics ([1]; Child-Pugh score of 5 to 6): does not affect to a clinically relevant degree | oral bioavailability ([1]; Emend capsule of 80 mg): 67% | oral bioavailability ([1]; Emend capsule of 125 mg): 59% | linearity of pharmacokinetics ([1]; clinical dose interval): non-linear pharmacokinetics | AUC0-24 h greater in elderly (≧65 years) than younger adults ([1]; day 1, oral 125 mg Emend): 21% | Cmax greater in elderly than younger adults ([1]; day 1): 10% | AUC0-24 h greater in elderly (≧65 years) than younger adults ([1]; day 5, 80 mg once a day): 36% | Cmax greater in elderly than younger adults ([1]; day 5): 24% | share of plasma radioactivity ([1]; healthy young adults, over 72 hours after single 100 mg intravenous dose of [C14] prodrug): approximately 19% | increase in AUC0-∞ greater in proportion to the dose ([1]; healthy young adults, single doses of 80 mg and 125 mg, postprandial): 26% | metabolites identified in human plasma ([1]; human plasma): 12 | increase of AUC with food ([1]; oral capsule with standard breakfast of approximately 800 Kcal): up to 40% | Tmax ([1]; oral): approximately 4 hours | reduction of AUC0-∞ of total aprepitant with respect to healthy patients ([1]; severe renal insufficiency (CrCl<30 ml/min), single dose of 240 mg of Emend): 21% | reduction of Cmax with respect to healthy patients ([1]; severe renal insufficiency, single dose of 240 mg of Emend): 32% | Cmax greater in women than men [1, 2]: 16% | half-life greater in women than men [1, 2]: 25% | reduction of AUC0-∞ of total aprepitant [1, 3]: 42% | reduction of Cmax [1, 3]: 32%
